The series can be described thus: Human HepG2 cell viability assay in 384 well format. The format is toxicity, cell-based. Details: dose 125 nL, time 70.5 hour; cytotoxicity at 70.5 h: concentration not given beside the values. As to conditions: HepG2 cells, read-out: Inhibition.

Each structure is given as a SMILES string.

`CC1Cn2c(nc3c2c(=O)[nH]c(=O)n3C)O1` (centres undefined): the cytotoxicity at 70.5 h is -12.3%. Take `Cc1cccc(CN2C[C@@H]3CN(C(=O)c4ccsc4)C[C@@H]3C2=O)c1`: the cytotoxicity at 70.5 h was -5.57%. To `CO[C@H]1CCN(c2ncccn2)[C@H]1Cc1ccccc1` belongs -6.47%. As to `COCCC(=O)N1CCN(C)c2ncccc2C1`, the cytotoxicity at 70.5 h was -6.73%.

Take `Cc1nc(N2CCOCC2)nc2c1CN(C(=O)Cc1ccccn1)CC2`: the cytotoxicity at 70.5 h is -8.21%.

Regarding `Cc1cc(C(=O)NCC2COCc3c(C)nnn3C2)no1` (centres undefined), the cytotoxicity at 70.5 h was -6.83%. To `Cc1nnn2c1COCC(CNC(=O)c1ccc3[nH]ccc3c1)C2` (centres undefined) belongs -9.06%.

Consider `CNC(=O)[C@H]1C[C@@H]2CN(S(=O)(=O)c3ccccc3)C[C@@H]2N1C(C)=O`, for which the cytotoxicity at 70.5 h is -3.07%. As for `CNC(=O)N1C[C@H]2CC[C@@]3(N=C(c4ccccc4)NC3=O)[C@H]2C1`, the cytotoxicity at 70.5 h is -6.95%. Turning to `NCC1Cn2nnc(-c3cccc(F)c3)c2CO1` (centres undefined), the cytotoxicity at 70.5 h was -4.77%. As to `CN(C)C(=O)NC[C@H]1OC[C@@H]2CCN(Cc3ccoc3)C[C@@H]21`, the cytotoxicity at 70.5 h amounted to 52.3%. To `CC(C)NC(=O)N1CC[C@@H]2CN(Cc3cccc(Cl)c3)S(=O)(=O)[C@@H]2CC1` belongs 27%. Consider `Cc1ccc(CN2CCC3(CC(C(=O)NCC4CC4)=NO3)C2)cc1C` (centres undefined), for which the cytotoxicity at 70.5 h came out at 27.5%. To `O=C(N[C@@H]1CN(Cc2cccs2)[C@@H]2CCCO[C@@H]21)C1CC1` belongs -10.5%; to `O=C1CO[C@@H]2CN(S(=O)(=O)c3ccccc3)C[C@H]2N1CC1CC1`, -13.1%. As to `O=C(NCc1cccs1)C1CN(C(=O)c2cccs2)CC12CCOCC2` (centres undefined), the cytotoxicity at 70.5 h is -8.67%. As to `COc1cccc(S(=O)(=O)N2CCn3cnc(COCC4CC4)c3C2)c1`, the cytotoxicity at 70.5 h is -10%. On to `CS(=O)(=O)CC(=O)N1C[C@@H]2COC[C@]2(c2nnc(C3CC3)o2)C1`, for which the cytotoxicity at 70.5 h turned out to be 4.38%.

Take `O=C(NCc1cccnc1)C1=NOC2(CCN(S(=O)(=O)C3CC3)C2)C1` (centres undefined): the cytotoxicity at 70.5 h was -10.8%. As for `CC(C)N(C)C(=O)C1=NOC2(CCN(C(=O)c3ccc(Cl)cc3)C2)C1` (centres undefined), the cytotoxicity at 70.5 h is -0.00349%. To `O=C1NC2(CCN(CC(=O)N3CCOCC3)CC2)Nc2ccc(Br)cc21` belongs -2.15%.

For the compound `Cc1nn(C)cc1CN1CCCC(n2c(=O)oc3ccccc32)C1` (centres undefined), the cytotoxicity at 70.5 h stood at 0.702%.

With `CSc1ncc(C(=O)NCCn2nccc2C)cn1`, the cytotoxicity at 70.5 h was -2.28%.

In the case of `CC(C)c1ncc(CN2CCC(O)(c3ccccc3F)CC2)cn1`, the cytotoxicity at 70.5 h is 2.86%. `COCCC(=O)N1CCC2(CC1)CN(S(C)(=O)=O)Cc1ccccc1O2`: the cytotoxicity at 70.5 h is -2.27%. To `CCc1ncc(CN2CCC(O)(c3ccccc3F)CC2)cn1` belongs -4.61%; to `Cc1ncc(CN2CCC(O)(c3ccccc3F)CC2)cn1`, -0.616%. To `Cn1ncc(Cl)c1C(=O)N1CCC(c2nnsc2S(C)(=O)=O)CC1` belongs 7.94%; to `COc1cc2c(cc1CCC(=O)O)CCC2`, 17.1%; to `CCN(CC)S(=O)(=O)c1cc2c3c(c1)c(C)cc(=O)n3CC2`, 3.57%. As for `Cc1cccnc1C(Cc1ccsc1)NCc1cnc(N(C)C)nc1` (centres undefined), the cytotoxicity at 70.5 h was -8.31%. Regarding `COc1ccc(C(=O)N2CCOCC2c2[nH]ncc2C)cc1F` (centres undefined), the cytotoxicity at 70.5 h was -3.4%. To `CO[C@@H]1CCC[C@@H](NC(=O)CCCn2cncn2)[C@H]1O` belongs -1.73%; to `CCCn1nc(C)c(C(=O)N[C@@H]2CC[C@@H](N3CCCC3)[C@@H]2O)c1C`, -6.2%. In the case of `Cc1nccn1[C@@H]1CC[C@@H](NC(=O)CCCn2cncn2)[C@H]1O`, the cytotoxicity at 70.5 h turned out to be 16.1%. To `O=C(O)CCCC(=O)NCC1(O)CCN(c2ccnc3cccnc23)C1` (centres undefined) belongs 1.69%. With `CSCC[C@@H]1CN2CCC[C@H]2CN1Cc1coc2ccc(C)cc2c1=O`, the cytotoxicity at 70.5 h was -1.62%. To `CC(C)(C)c1ccc(OCC(N)=O)c(CN2C[C@H]3C[C@H](O)C[C@H]3C2)c1` belongs -7.47%. To `Cc1ccc(CN2CCOC(c3cnccn3)C2)s1` (centres undefined) belongs -5.54%; to `COc1ccc2c(c1)C(=O)NC1(CC2)CCN(Cc2ccccc2)C1` (centres undefined), -3.55%; to `CCOc1ccc(CN2CCC(c3nc(C)cc(C)n3)C2)cc1CO` (centres undefined), 2.12%.

On to `O=C(O)C1CN(c2cncc(Cc3ccccc3)n2)C1`, for which the cytotoxicity at 70.5 h was -3.73%. To `CN1CCC(c2n[nH]cc2-c2ccnc(N)c2)C1` (centres undefined) belongs 0.193%. Regarding `CC(C)N1CCC(c2n[nH]cc2-c2ccnc(N)c2)C1` (centres undefined), the cytotoxicity at 70.5 h was found to be 2.17%. To `CN(C)S(=O)(=O)N1CCC(c2n[nH]cc2-c2ccnc(N)c2)C1` (centres undefined) belongs 5.75%.

With `Cc1c[nH]c(C2COCCN2C(=O)c2ccc(=O)[nH]n2)n1` (centres undefined), the cytotoxicity at 70.5 h is -4.98%. On to `c1ccc(Cc2cccc(C3CCCN3C3CCOCC3)n2)cc1` (centres undefined), for which the cytotoxicity at 70.5 h was -13.2%.

As for `CC(=O)N1CC(C(=O)N2CCCC(Cn3ccnc3C)C2)C1` (centres undefined), the cytotoxicity at 70.5 h is -9.41%. In the case of `CCC(=O)N1CCCC1(C)c1nc(C)no1` (centres undefined), the cytotoxicity at 70.5 h is -6.82%. As for `OCC(CO)N1CCCC(Cc2ccnc(Nc3ccccn3)c2)C1` (centres undefined), the cytotoxicity at 70.5 h is -14.9%. To `O=C(NC1CCCN(c2ccccn2)C1)C1(c2ccccc2F)CC1` (centres undefined) belongs 15.1%. `CNC(=O)c1sc2ccccc2c1C1CCN(c2nc(C)cc(C)n2)C1` (centres undefined): the cytotoxicity at 70.5 h was -6.07%.

In the case of `Oc1cc(C2CCCCN2CC2CC2)nc(-c2ccncc2)n1` (centres undefined), the cytotoxicity at 70.5 h is -10.4%. To `Cc1nc(C2CCCCN2S(C)(=O)=O)no1` (centres undefined) belongs -13.4%. Consider `Oc1cc(C2CCCCN2C2CCCC2)nc(-c2ccncc2)n1` (centres undefined), for which the cytotoxicity at 70.5 h is -14.1%. For `Cc1nc(-c2ccc(F)cc2)cc(C2CCNCC2)n1`, the cytotoxicity at 70.5 h was -10%. As for `Cc1nn(C(C)C)cc1S(=O)(=O)N(C)Cc1nonc1C`, the cytotoxicity at 70.5 h is -7.62%.

Regarding `Cc1nnc(C2CCN(c3ccc(F)cc3)CC2)o1`, the cytotoxicity at 70.5 h was -9.58%. For the compound `O=C(N1CCCC1)C1(Cc2ccc(-c3cccs3)cc2)CCNC1` (centres undefined), the cytotoxicity at 70.5 h is 2.43%.

In the case of `Cc1nc(C2CCNC2)nc2c1CCC(=O)N2C` (centres undefined), the cytotoxicity at 70.5 h is -4.12%. To `Cc1nccn1-c1cccc(C2CCCN2)n1` (centres undefined) belongs -13.4%; to `O=C(NCc1cncc2c1CCN(Cc1cccc(F)c1)C2)C1CC1`, -1.35%. To `Cn1cccc1C(=O)N1CCCC2(CCN(CCN3CCCC3)C2=O)C1` (centres undefined) belongs -2.83%; to `CNC(=O)[C@H]1C[C@@H]2CN(S(=O)(=O)c3ccccc3)C[C@@H]2N1C`, -8.21%. To `CS(=O)(=O)N1CC[C@H]2[C@H](C[C@@H](Cn3cncn3)N2CC2CC2)C1` belongs -1.14%; to `O=C(NC1CC1)[C@H]1CC[C@@H]2[C@@H](CCN2c2ncc(F)cn2)O1`, -11.8%. Take `NC(=O)N1CCC2(CCN(Cc3cccc(F)c3)CC2)CC1`: the cytotoxicity at 70.5 h was -7.24%.

For the compound `O=C(NC1CC1)[C@@H]1CCO[C@@H]2CCN(C3CCOCC3)C[C@H]21`, the cytotoxicity at 70.5 h is -4.77%. To `Cn1cccc1C(=O)N1CCC2(CC1)CN(c1ccccn1)CCO2` belongs -5.53%; to `Cn1cc(CN2CCOC3(CCCN(C(=O)c4ccco4)C3)C2)cn1` (centres undefined), -6.59%; to `O=C(NC1CC1)[C@@H]1CCO[C@@H]2CCN(C3CCOCC3)C[C@@H]21`, -8.31%. For `CC(C)CN1C[C@H]2CCN(c3ncccn3)CC[C@H]2S1(=O)=O`, the cytotoxicity at 70.5 h was -12.5%. With `O=C(NCC1CC1)[C@@H]1CCO[C@@H]2CCN(Cc3ccco3)C[C@H]21`, the cytotoxicity at 70.5 h is 15.7%. To `Cc1ccc2c(n1)N(C)CCN(C(=O)C1CC1)C2` belongs -8.52%. To `CC(=O)NCC(=O)N1CC[C@H](OCC2CC2)[C@@H]1Cc1cccnc1` belongs -8.28%; to `CS(=O)(=O)NC[C@H]1OC[C@@H]2CCN(Cc3ccc(F)cc3)C[C@@H]21`, 16.9%. To `O=C([C@H]1COC[C@H]2CN(C3CCCC3)C[C@H]21)N1CCCCO1` belongs -12.7%.

As for `O=C([C@@H]1COC[C@H]2CN(C3CCOCC3)C[C@H]21)N1CCCCO1`, the cytotoxicity at 70.5 h stood at 18.7%. To `Cc1nc(N2CCCC2)nc2c1CCN(Cc1ccco1)CC2` belongs -16.4%.

As for `O=C(c1cscn1)N1C[C@H]2CCCC(OCc3cccnc3)[C@H]2C1` (some centres undefined), the cytotoxicity at 70.5 h is -11.5%. In the case of `COCC(=O)N1CCC(c2nc3ccc(N4CCCC4)cn3n2)CC1`, the cytotoxicity at 70.5 h was -5.18%. To `Cc1ccc(CN2CCc3ncc(CNS(C)(=O)=O)n3CC2)o1` belongs -12.4%; to `O=C(Cc1cccnc1)N1CCC2(CC1)CCN(C1CCOCC1)C2`, -3.79%. Take `O=C1N(c2cncnc2)CCC12CCCN(Cc1ccccn1)C2` (centres undefined): the cytotoxicity at 70.5 h was -9.94%. To `CN(C)C(=O)COCc1cncc2c1CCN(Cc1cnn(C)c1)C2` belongs -8.65%; to `CN1CCN(Cc2cccnc2)C2(CCN(c3ncc(F)cn3)C2)C1=O` (centres undefined), -6.18%. To `Cn1cc(CN2CCC3(C2)CN(Cc2ccsc2)C3)cn1` belongs -6.34%.

On to `CC(=O)NCC(=O)N1CCn2cc(CN3CCN(C)CC3)nc2C1`, for which the cytotoxicity at 70.5 h was -11.5%. Turning to `CN1CCc2onc(CNc3ncccn3)c2C1`, the cytotoxicity at 70.5 h was -25.4%. To `c1cnc(N2CCOCC3(CCCN(CC4CC4)C3)C2)cn1` (centres undefined) belongs -5.91%. To `CC(C)Nc1nc2c(cc1C(=O)NCC1CC1)CCNCC2` belongs -10%; to `COCCN1CCc2cc(C(=O)NCC3CC3)c(NC(C)C)nc2CC1`, 24.8%. To `Cc1cccc(CO[C@@H]2CC[C@H]3[C@H]2OCCN3Cc2ccsc2)n1` belongs -12.2%; to `COc1nc2cc(C)ccc2cc1CN(C)Cc1cc(C)[nH]n1`, -6.96%.
